Experimental data from patent publication US20230234962A1, “OXA-AZASPIRO DERIVATIVE, AND PREPARATION METHOD THEREFOR AND PHARMACEUTICAL USE THEREOF” (priority 2020, published 2023).
pIC50: −log10 of the molar value. Like-named read-outs stand apart in the source and are kept apart here.

Tests used:
Assay type in all cases: biochemical
PI3Kδ enzyme = PI3Kδ enzyme (Homo sapiens, UniProt O00329); assay: ADP-Glo kinase assay, inhibition of PI3Kδ enzyme
Experimental: (§1) In this experiment, an ADP-Glo™ kinase assay kit is used. A substrate is phosphorylated under the action of enzyme, and ADP is generated at the same time. An ADP-Glo Reagent is added to remove unreacted ATP in the reaction system, and the ADP generated by the reaction is detected by a kinase detection reagent. In the presence of a compound, the inhibition rate of the compound is calculated by measuring the signal value.
(§2) Test compounds were each subjected to 3-fold dilution from a starting concentration of 10000 nM to obtain 11 concentrations, and duplicate wells were set for the test. Gradient dilution to a corresponding 100-fold final concentration in a 384-well plate was performed to obtain solutions with 11 different concentrations. 50 nL of each solution was transferred to compound wells of a 384-well plate with Echo; negative control wells were added with 50 nL of DMSO. A kinase solution with a 2-fold final concentration was prepared using 1×kinase buffer. 2.5 μL of the kinase solution with a 2-fold final concentration was added to the compound wells; 2.5 μL of the 1× kinase buffer was added to the negative control wells. The mixture was centrifuged at 1000 rpm for 30 s, mixed well by shaking, and then incubated at room temperature for 10 min. A mixed solution of ATP and substrate P1P2 with a 2-fold final concentration was prepared using 1× kinase buffer. The reaction was initiated by adding 2.5 μL of the mixed solution of ATP and substrate with a 2-fold final concentration. The mixture in the 384-well plate was centrifuged at 1000 rpm for 30 s, mixed well by shaking, and then reacted at room temperature for 120 min. 5 μL of ADP-Glo reagent was added, and the mixture was centrifuged at 1000 rpm for 30 s, mixed well by shaking, and then incubated at room temperature for 40 min. 10 μL of kinase detection reagent was added, and the resulting mixture was centrifuged at 1000 rpm for 30 s, mixed well by shaking, and then incubated at room temperature for 30 min. The luminescence RLU was read with an Envision microplate reader.
(§3) IC50 values for the inhibitory activity of the compounds were calculated using Graphpad Prism software.

PI3Kβ enzyme = PI3Kβ enzyme (Homo sapiens, UniProt P42338); assay: ADP-Glo kinase assay, selectivity, PI3Kβ enzyme; conditions: 11 concentrations from 10000 nM
Sequence of PI3Kβ enzyme (P27986 whole entry): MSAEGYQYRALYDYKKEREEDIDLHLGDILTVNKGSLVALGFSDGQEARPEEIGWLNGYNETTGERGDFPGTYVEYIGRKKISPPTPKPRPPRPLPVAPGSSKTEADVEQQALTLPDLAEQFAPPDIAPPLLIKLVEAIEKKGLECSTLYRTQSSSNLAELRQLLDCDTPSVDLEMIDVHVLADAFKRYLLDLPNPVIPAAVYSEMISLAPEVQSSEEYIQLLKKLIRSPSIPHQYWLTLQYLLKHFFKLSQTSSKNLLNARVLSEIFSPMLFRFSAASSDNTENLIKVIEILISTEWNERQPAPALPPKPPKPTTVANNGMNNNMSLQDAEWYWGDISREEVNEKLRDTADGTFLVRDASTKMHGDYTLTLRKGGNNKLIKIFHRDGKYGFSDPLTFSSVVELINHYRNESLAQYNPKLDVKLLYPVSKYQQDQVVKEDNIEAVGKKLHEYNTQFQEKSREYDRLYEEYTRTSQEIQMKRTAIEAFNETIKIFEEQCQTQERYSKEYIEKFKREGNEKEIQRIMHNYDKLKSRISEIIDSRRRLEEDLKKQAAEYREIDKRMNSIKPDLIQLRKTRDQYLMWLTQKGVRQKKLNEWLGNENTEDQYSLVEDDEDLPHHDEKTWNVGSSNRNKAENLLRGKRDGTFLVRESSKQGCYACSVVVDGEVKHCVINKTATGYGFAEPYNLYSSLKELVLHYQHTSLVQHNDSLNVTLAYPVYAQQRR
Sequence of PI3Kβ enzyme (P42338 whole entry): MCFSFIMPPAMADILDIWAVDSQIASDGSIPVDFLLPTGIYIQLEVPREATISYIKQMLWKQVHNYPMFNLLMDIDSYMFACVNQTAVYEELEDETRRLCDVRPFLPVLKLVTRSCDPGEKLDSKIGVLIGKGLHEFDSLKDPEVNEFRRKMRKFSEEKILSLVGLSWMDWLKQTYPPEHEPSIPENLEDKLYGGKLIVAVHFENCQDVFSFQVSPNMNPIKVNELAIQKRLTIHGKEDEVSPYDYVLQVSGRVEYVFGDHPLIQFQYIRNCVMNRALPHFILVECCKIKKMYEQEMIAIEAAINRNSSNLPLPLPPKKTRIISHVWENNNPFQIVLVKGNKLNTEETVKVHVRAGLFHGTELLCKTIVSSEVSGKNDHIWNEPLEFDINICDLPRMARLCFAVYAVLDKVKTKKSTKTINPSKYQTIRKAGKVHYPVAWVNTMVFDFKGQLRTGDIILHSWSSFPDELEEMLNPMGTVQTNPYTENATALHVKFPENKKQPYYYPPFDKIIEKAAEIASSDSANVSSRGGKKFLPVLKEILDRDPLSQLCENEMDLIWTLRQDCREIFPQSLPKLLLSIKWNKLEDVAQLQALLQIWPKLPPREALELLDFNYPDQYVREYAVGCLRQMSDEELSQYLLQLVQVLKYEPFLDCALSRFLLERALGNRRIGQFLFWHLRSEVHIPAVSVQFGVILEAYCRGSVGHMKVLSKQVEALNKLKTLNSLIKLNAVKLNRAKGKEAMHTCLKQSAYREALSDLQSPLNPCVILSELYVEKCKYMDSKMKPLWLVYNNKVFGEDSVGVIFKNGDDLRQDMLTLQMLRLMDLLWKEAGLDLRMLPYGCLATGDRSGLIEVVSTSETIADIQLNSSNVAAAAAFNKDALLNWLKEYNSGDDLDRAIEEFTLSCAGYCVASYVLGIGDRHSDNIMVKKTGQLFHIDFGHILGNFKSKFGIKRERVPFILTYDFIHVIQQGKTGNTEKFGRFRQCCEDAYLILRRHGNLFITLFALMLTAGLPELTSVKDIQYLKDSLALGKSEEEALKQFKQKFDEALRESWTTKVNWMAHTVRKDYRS
Experimental: as §1, §2, §3

PI3Kα enzyme = PI3Kα enzyme (Homo sapiens, UniProt P42336); assay: ADP-Glo kinase assay, selectivity, PI3Kα enzyme; conditions: 11 concentrations from 10000 nM
Sequence of PI3Kα enzyme (P42336 whole entry): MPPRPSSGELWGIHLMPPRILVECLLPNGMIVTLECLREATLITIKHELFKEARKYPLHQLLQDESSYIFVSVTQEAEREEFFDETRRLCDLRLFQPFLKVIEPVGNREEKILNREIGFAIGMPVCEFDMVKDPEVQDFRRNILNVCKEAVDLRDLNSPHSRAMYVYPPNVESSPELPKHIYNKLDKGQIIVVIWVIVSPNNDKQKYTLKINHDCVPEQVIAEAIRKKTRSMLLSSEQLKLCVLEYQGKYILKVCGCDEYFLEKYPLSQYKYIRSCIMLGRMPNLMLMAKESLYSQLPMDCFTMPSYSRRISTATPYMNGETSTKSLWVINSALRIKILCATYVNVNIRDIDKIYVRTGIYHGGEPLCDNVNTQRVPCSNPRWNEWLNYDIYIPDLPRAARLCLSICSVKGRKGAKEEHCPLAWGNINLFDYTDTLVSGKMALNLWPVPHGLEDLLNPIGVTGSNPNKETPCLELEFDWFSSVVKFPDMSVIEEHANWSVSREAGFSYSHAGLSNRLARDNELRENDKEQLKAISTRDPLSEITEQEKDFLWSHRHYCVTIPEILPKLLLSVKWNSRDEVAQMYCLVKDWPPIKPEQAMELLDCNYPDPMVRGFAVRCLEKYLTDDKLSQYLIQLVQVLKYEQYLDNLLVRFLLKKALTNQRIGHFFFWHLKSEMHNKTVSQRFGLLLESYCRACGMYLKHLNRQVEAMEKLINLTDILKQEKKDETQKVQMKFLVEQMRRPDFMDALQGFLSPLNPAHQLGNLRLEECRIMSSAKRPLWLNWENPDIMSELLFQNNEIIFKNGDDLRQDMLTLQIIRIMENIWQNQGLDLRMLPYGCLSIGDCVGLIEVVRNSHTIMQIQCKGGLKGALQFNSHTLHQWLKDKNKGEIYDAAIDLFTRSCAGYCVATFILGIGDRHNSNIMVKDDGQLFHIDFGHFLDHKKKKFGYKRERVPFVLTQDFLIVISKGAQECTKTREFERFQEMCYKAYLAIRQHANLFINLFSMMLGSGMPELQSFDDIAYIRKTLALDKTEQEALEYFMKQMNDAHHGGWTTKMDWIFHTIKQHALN
Sequence of PI3Kα enzyme (P27986 whole entry, further chain): as the sequence (P27986 whole entry) above
Experimental: as §1, §2, §3

PI3Kγ enzyme = PI3Kγ enzyme (Homo sapiens, UniProt P48736); assay: ADP-Glo kinase assay, selectivity, PI3Kγ enzyme; conditions: 11 concentrations from 10000 nM
Sequence of PI3Kγ enzyme (P48736 whole entry): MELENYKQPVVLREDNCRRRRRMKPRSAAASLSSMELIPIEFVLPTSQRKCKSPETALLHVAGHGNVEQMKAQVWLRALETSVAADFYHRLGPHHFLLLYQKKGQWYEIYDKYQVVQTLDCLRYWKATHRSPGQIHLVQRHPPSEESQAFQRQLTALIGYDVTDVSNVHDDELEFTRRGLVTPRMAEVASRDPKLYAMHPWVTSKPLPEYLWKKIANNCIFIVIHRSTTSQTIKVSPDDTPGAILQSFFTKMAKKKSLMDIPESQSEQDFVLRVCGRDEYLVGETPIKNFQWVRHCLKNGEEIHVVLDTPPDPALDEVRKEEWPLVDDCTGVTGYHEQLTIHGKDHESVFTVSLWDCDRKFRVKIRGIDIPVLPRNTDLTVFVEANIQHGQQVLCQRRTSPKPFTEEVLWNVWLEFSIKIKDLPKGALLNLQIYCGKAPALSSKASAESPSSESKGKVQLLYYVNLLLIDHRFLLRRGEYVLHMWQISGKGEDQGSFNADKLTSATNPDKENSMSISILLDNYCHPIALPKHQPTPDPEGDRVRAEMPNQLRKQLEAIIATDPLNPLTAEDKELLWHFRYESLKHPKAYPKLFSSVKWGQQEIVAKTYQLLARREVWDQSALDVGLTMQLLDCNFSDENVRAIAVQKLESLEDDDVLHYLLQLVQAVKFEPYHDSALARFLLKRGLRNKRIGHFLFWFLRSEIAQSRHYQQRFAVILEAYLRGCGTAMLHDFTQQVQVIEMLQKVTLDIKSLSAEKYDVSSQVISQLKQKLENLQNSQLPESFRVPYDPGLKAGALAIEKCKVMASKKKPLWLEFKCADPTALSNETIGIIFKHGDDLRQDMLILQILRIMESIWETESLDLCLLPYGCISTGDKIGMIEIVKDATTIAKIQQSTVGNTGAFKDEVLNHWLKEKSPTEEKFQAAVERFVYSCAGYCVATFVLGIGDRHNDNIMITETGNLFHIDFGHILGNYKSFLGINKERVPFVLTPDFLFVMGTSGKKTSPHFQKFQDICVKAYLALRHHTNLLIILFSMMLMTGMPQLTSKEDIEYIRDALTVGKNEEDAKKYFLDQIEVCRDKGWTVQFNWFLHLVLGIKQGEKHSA
Experimental: as §1, §2, §3

[1] = ADP-Glo, PIK3CD/PIK3R1, 11 concentrations from 10000 nM, read-out: PI3Kδ enzyme IC50

Sequence of PI3Kδ enzyme (O00329 whole entry): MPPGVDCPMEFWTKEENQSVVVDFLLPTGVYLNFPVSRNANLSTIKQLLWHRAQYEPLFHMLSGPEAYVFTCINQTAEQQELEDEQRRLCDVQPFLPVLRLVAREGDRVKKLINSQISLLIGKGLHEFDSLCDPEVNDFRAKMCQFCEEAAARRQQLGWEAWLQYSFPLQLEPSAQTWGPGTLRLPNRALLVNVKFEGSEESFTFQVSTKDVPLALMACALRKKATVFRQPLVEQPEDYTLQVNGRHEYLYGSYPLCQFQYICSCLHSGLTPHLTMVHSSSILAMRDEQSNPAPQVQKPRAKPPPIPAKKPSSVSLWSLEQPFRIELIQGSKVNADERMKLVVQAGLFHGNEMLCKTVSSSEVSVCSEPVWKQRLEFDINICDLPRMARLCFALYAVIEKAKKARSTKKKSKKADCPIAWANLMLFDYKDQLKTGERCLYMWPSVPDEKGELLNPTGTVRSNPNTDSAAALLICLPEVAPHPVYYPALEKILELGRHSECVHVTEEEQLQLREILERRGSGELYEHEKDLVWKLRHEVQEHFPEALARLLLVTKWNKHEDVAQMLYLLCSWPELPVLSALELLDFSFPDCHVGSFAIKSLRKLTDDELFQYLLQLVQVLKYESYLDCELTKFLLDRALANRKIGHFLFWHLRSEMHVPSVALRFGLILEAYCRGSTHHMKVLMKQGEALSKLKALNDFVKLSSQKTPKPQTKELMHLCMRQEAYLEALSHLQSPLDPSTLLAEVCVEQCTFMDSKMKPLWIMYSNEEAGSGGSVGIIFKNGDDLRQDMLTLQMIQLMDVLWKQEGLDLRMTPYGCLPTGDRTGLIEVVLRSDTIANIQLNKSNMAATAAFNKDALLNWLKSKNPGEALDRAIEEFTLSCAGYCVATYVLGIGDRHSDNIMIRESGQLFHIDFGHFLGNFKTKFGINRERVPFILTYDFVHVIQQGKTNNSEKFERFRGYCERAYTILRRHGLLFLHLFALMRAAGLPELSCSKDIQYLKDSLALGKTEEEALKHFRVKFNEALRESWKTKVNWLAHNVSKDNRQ
Sequence of PI3Kδ enzyme (P27986 whole entry partner): as the sequence (P27986 whole entry) above

Row | SMILES | pIC50 (PI3Kδ enzyme; [1]) | pIC50 (PI3Kβ enzyme) | pIC50 (PI3Kα enzyme) | pIC50 (PI3Kδ enzyme) | pIC50 (PI3Kγ enzyme)
1 | O=C(c1nn(-c2ccc(CN3CCOCC3)cc2)c2c1CS(=O)(=O)c1c(Cl)cccc1-2)N1CCOC2(CC2)C1 [Example 2, (6-chloro-1-(4-(morpholinomethyl)phenyl)-5,5-dioxido-1,4-dihydrothiochromeno[4,3-c]pyrazol-3-yl)(4-oxa-7-azaspiro[2.5]octan-7-yl)methanone] | 7.74 | – | – | – | –
2 | Cc1cccc2c1-c1c(c(C(=O)N3CCOC4(CC4)C3)nn1-c1ccc(CN3CCOCC3)cc1)CS2(=O)=O [Example 12, (9-methyl-1-(4-(morpholinomethyl)phenyl)-5,5-dioxido-1,4-dihydrothiochromeno[4,3-c]pyrazol-3-yl)(4-oxa-7-azaspiro[2.5]octan-7-yl)methanone] | 8.24 | – | – | – | –
3 | COc1cccc2c1S(=O)(=O)Cc1c(C(=O)N3CCOC4(CC4)C3)nn(-c3ccc(CN4CCOCC4)cc3)c1-2 [Example 5, (6-methoxy-1-(4-(morpholinomethyl)phenyl)-5,5-dioxido-1,4-dihydrothiochromeno[4,3-c]pyrazol-3-yl)(4-oxa-7-azaspiro[2.5]octan-7-yl)methanone] | – | 5.55 | 5.63 | 7.72 | < 5.00
4 | COc1ccc2c(c1)S(=O)(=O)Cc1c(C(=O)N3CCOC4(CC4)C3)nn(-c3ccc(CN4CCOCC4)cc3)c1-2 [Example 4, (7-methoxy-1-(4-(morpholinomethyl)phenyl)-5,5-dioxido-1,4-dihydrothiochromeno[4,3-c]pyrazol-3-yl)(4-oxa-7-azaspiro[2.5]octan-7-yl)methanone] | 8.10 | – | – | – | –
5 | Cc1ccc2c(c1)S(=O)(=O)Cc1c(C(=O)N3CCOC4(CC4)C3)nn(-c3ccc(CN4CCOCC4)cc3)c1-2 [Example 9, (7-methyl-1-(4-(morpholinomethyl)phenyl)-5,5-dioxido-1,4-dihydrothiochromeno[4,3-c]pyrazol-3-yl)(4-oxa-7-azaspiro[2.5]octan-7-yl)methanone] | – | 5.81 | 5.75 | 7.60 | < 5.00
6 | Cc1cccc2c1S(=O)(=O)Cc1c(C(=O)N3CCOC4(CC4)C3)nn(-c3ccc(CN4CCOCC4)cc3)c1-2 [Example 6, (6-methyl-1-(4-(morpholinomethyl)phenyl)-5,5-dioxido-1,4-dihydrothiochromeno[4,3-c]pyrazol-3-yl)(4-oxa-7-azaspiro[2.5]octan-7-yl)methanone] | – | 5.15 | 5.59 | 7.17 | < 5.00
7 | O=C(c1nn(-c2ccc(CN3CCOCC3)cc2)c2c1CS(=O)(=O)c1c-2ccc(Cl)c1F)N1CCOC2(CC2)C1 [Example 11, (7-chloro-6-fluoro-1-(4-(morpholinomethyl)phenyl)-5,5-dioxido-1,4-dihydrothiochromeno[4,3-c]pyrazol-3-yl)(4-oxa-7-azaspiro[2.5]octan-7-yl)methanone] | – | 6.13 | 6.36 | 7.98 | 5.05
8 | O=C(c1nn(-c2ccc(CN3CCOCC3)cc2)c2c1CS(=O)(=O)c1cc(Cl)ccc1-2)N1CCOC2(CC2)C1 [Example 7, (7-chloro-1-(4-(morpholinomethyl)phenyl)-5,5-dioxido-1,4-dihydrothiochromeno[4,3-c]pyrazol-3-yl)(4-oxa-7-azaspiro[2.5]octan-7-yl)methanone] | – | 5.76 | 5.82 | 7.58 | < 5.00
9 | COc1cccc2c1-c1c(c(C(=O)N3CCOC4(CC4)C3)nn1-c1ccc(CN3CCOCC3)cc1)CS2(=O)=O [Example 3, (9-methoxy-1-(4-(morpholinomethyl)phenyl)-5,5-dioxido-1,4-dihydrothiochromeno[4,3-c]pyrazol-3-yl)(4-oxa-7-azaspiro[2.5]octan-7-yl)methanone] | 8.25 | – | – | – | –
10 | O=C(c1nn(-c2ccc(CN3CCOCC3)cc2)c2c1CS(=O)(=O)c1c(F)cccc1-2)N1CCOCC12CC2 [Control Example 10, (6-fluoro-1-(4-(morpholinomethyl)phenyl)-5,5-dioxido-1,4-dihydrothiochromeno[4,3-c]pyrazol-3-yl)(7-oxa-4-azaspiro[2.5]octan-4-yl)methanone, reference compound] | – | – | – | < 5.00 | –
11 | O=C(c1nn(-c2ccc(CN3CCOCC3)cc2)c2c1CS(=O)(=O)c1c(F)cccc1-2)N1CCOC2(CC2)C1 [Example 1, (6-fluoro-1-(4-(morpholinomethyl)phenyl)-5,5-dioxido-1,4-dihydrothiochromeno[4,3-c]pyrazol-3-yl)(4-oxa-7-azaspiro[2.5]octan-7-yl)methanone] | – | 5.88 | 6.33 | 7.89 | 5.21
